{
  "source": "ChEMBL document CHEMBL1201862",
  "about": "“PubChem BioAssay data set” (2004)",
  "key": {"[1]": {"target": "Fructose-bisphosphate aldolase (Mycobacterium tuberculosis, UniProt P9WQA3)", "sequence (P9WQA3 whole entry)": "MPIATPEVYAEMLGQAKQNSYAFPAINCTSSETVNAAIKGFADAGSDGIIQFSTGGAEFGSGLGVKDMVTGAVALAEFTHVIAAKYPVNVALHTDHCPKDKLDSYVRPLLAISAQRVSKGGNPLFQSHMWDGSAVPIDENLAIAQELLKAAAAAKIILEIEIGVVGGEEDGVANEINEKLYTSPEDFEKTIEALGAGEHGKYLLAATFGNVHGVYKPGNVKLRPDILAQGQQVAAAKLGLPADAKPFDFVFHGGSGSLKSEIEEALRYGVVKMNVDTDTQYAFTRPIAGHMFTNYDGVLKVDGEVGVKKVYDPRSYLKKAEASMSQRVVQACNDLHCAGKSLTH", "test": "Fluorescence-based biochemical high throughput dose response assay for inhibitors of the fructose-bisphosphate aldolase (FBA) of M. tuberculosis.", "type": "functional"}, "[2]": {"target": "Nuclear receptor subfamily 0 group B member 1 (Homo sapiens, UniProt P51843)", "sequence (P51843 whole entry)": "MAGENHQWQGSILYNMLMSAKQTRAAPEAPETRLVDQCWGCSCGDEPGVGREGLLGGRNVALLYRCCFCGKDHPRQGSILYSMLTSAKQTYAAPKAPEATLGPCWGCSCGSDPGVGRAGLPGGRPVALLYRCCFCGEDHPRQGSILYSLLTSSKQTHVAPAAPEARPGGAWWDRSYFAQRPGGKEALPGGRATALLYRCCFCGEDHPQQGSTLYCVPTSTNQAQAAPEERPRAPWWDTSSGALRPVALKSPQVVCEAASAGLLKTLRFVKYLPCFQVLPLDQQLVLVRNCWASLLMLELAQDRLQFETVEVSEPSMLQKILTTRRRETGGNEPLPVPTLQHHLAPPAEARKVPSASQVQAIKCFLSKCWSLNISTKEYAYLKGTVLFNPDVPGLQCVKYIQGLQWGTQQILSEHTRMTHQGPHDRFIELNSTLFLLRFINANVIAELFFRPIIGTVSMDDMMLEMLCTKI", "type": "functional, cell-based"}, "cells [3]": {"test": "cells", "type": "functional, cell-based"}, "[4]": {"test": "HIV-1 AD8 envelope cell-cell fusion blockers – cherry-pick, dose response (AID 652062);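 note: potency is for inhibitors of fusion seen as a drop in luminescence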", "type": "functional, cell-based"}, "[5]": {"test": "blockers of HIV-1 ZM109 envelope-driven cell-cell fusion – HeLa effector, CEM target cells, luciferase, cherry-pick, dose response (AID 652058)", "type": "functional, cell-based"}, "[6]": {"test": "blockers of HIV-1 envelope-mediated cell-cell fusion – cherry-pick, dose response (AID 652057)", "type": "functional, cell-based"}, "[7]": {"test": "general mammalian cell viability loss – inhibitor set, cherry-pick, set 2, cytotoxicity control for miR-122 modulator project, dose response (AID 720697)", "type": "functional, cell-based"}, "[8]": {"test": "activation of miR-122 Renilla sensor silencing – cell-based, Huh7 psiCHECK-miR122, Renilla luciferase, cherry-picked, dose response (AID 651956);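 note: huh7 hepatoma cells stably carrying a psiCHECK-2 miR-122 sensor plasmid; renilla luciferase signal reporting endogenous miR-122 activity after 48 h compound exposure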", "type": "functional"}, "[9]": {"test": "A549 cell cytotoxicity, dose response, cytotoxicity control, plate reader, cherry-pick, antagonist series (AID 743412)", "type": "functional, cell-based"}, "[10]": {"test": "viability loss in HEK293 cells – cell-based, plate reader, cherry-picked samples, cytotoxicity control, dose response (AID 743446)", "type": "functional"}, "[11]": {"test": "blockade of melanocortin 4 receptor signaling – cell-based, plate reader, cherry pick, counter-screen for LGR2 antagonist project, dose response (AID 743444);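 note: transfected HEK 293 cells stimulated with alpha-MSH peptide; potency of inhibitors of the alpha-MSH evoked signal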", "type": "functional"}, "[12]": {"test": "toxicity toward HepG2 liver cells – cell-based, plate reader, cherry-pick, antagonist series, cytotoxicity control, dose response (AID 743416)", "type": "functional"}, "[13]": {"test": "inhibition of bursicon-driven LGR2 cAMP signaling – cell-based, HEK293, CRE-luciferase reporter, cherry pick, dose response (AID 743342)", "type": "functional"}, "[14]": {"test": "off-target signal loss in HeLa-CEM21 co-culture – HeLa F-luc CTL cells, cherry-picked, counter-screen for HIV-1 Env fusion inhibitor project, dose response (AID 652040);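 note: potency for signal decrease marking cytotoxic or nonspecific inhibition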", "type": "functional, cell-based"}, "[15]": {"test": "NIH-3T3 fibroblast cytotoxicity, dose response, cytotoxicity control, cell-based, fluorescence, Alamar Blue, secondary assay (AID 2327);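 note: NIH-3T3 mouse fibroblasts cultured with fluconazole at 8 µg/mL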", "type": "functional"}, "[16]": {"test": "Trypanosoma cruzi growth suppression in host cells – NIH3T3 host cells, beta-gal luminescence, confirmation (AID 2044);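 note: intracellular parasites grown in NIH/3T3 mouse fibroblasts as host cells; luminescent beta-galactosidase reporter signal from transgenic T. cruzi replicating inside host cells; inhibitors lower the luminescence signal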", "type": "functional, cell-based"}, "[17]": {"test": "viability loss in CEM21 cells – cell-based, CellTiter-Glo luminescence, cherry-picked, cytotoxicity control for viral fusion inhibitor project, dose response (AID 652042);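 note: potency for signal decrease meaning cytotoxicity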", "type": "functional"}, "[18]": {"test": "fluconazole-exposed Candida albicans growth modulators – fluorescence, retest, confirmation (AID 2467)", "type": "functional, cell-based"}, "cells [19]": {"test": "cells"}, "[20]": {"test": "NIH3T3 cell viability loss – ATP luminescence, mouse fibroblasts, counter-screen, dose response (AID 2010);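 note: cells exposed to compound for about 90 hours before reading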", "type": "functional, cell-based"}, "Cytochrome P450 2C19": {"target": "Cytochrome P450 2C19 (Homo sapiens, UniProt P33261)", "sequence (P33261 whole entry)": "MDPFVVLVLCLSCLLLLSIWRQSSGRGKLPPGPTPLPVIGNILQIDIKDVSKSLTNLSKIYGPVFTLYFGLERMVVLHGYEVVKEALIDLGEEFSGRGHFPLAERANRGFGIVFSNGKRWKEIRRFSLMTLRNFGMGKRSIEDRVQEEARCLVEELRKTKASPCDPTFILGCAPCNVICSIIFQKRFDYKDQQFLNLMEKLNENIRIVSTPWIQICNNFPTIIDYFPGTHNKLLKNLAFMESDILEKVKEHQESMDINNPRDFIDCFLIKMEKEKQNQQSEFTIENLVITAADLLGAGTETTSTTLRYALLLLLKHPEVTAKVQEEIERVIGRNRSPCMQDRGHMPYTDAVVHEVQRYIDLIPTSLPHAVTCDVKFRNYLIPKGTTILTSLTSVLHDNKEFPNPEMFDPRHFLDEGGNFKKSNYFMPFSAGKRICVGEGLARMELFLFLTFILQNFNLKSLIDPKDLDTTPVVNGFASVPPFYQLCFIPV", "test": "Cytochrome panel assay with activity outcomes. Panel member name: p450-cyp2c19 Compounds with AC50 equal or less than 10 uM are considered active", "type": "functional"}, "[21]": {"test": "HGIII-sPLA2 enzyme inhibition potency – biochemical, QFRET, IC50, dose response (AID 743457);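 note: green fluorescence rise as the enzyme cleaves BODIPY PC-A2 in liposomes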"}},
  "note": "The source made the active and inactive calls.",
  "data": [
    {"smiles": "COCCCNC(=S)NCCCNc1nc2cc3c(cc2cc1C#N)OCO3", "values": [
      {"measurement": "IC50", "setting": "[1]", "result": "1.2 µM (active)"}
    ]},
    {"smiles": "C/C(=N/NC(=O)c1ccoc1C)c1cccc(NC(=O)C(F)(F)F)c1", "values": [
      {"measurement": "IC50", "setting": "[2]", "result": "> 67.5 µM (inactive)"},
      {"measurement": "IC50", "setting": "cells [3]", "result": "> 67.5 µM (inactive)"}
    ]},
    {"smiles": "C[C@@H]1CN([C@@H](C)CO)C(=O)Cc2cc(NS(=O)(=O)c3cccs3)ccc2O[C@H]1CN(C)Cc1ccc(Cl)c(Cl)c1", "values": [
      {"measurement": "AC50", "setting": "[4]", "result": "0.486 µM (active)"},
      {"measurement": "AC50", "setting": "[5]", "result": "< 0.26 µM (active)"},
      {"measurement": "AC50", "setting": "[6]", "result": "9.27 µM (active)"}
    ]},
    {"smiles": "CC(=O)N(C)C[C@H]1Oc2cc(/C=C/c3ccccc3)ccc2S(=O)(=O)N([C@@H](C)CO)C[C@H]1C", "values": [
      {"measurement": "AC50", "setting": "[7]", "result": "451 nM (active)"},
      {"measurement": "AC50", "setting": "[8]", "result": "26.9 µM (active)"}
    ]},
    {"smiles": "Cc1ccc2nc(NC(=O)COC(=O)c3cccnc3)sc2c1", "values": [
      {"measurement": "IC50", "setting": "[2]", "result": "> 67.5 µM (inactive)"},
      {"measurement": "IC50", "setting": "cells [3]", "result": "> 67.5 µM (inactive)"}
    ]},
    {"smiles": "C[C@@H]1CN([C@@H](C)CO)C(=O)c2cc(NC(=O)c3ccncc3)ccc2O[C@@H](C)CCCCO[C@H]1CN(C)C(=O)Nc1cccc2ccccc12", "values": [
      {"measurement": "AC50", "setting": "[9]", "result": "14.3 µM (active)"},
      {"measurement": "AC50", "setting": "[10]", "result": "17.1 µM (active)"},
      {"measurement": "AC50", "setting": "[11]", "result": "9.74 µM (active)"},
      {"measurement": "AC50", "setting": "[12]", "result": "17.1 µM (active)"},
      {"measurement": "AC50", "setting": "[13]", "result": "2.91 µM (active)"}
    ]},
    {"smiles": "CC[n+]1c(C=CN(C)c2ccccc2)sc2ccc(Cl)cc21.[O-][Cl+3]([O-])([O-])[O-]", "values": [
      {"measurement": "AC50", "setting": "[14]", "result": "13 µM (active)"},
      {"measurement": "EC50", "setting": "[15]", "result": "> 150 µM (inactive)"},
      {"measurement": "EC50", "setting": "[16]", "result": "< 100 nM (active)"},
      {"measurement": "AC50", "setting": "[4]", "result": "8.92 µM (active)"},
      {"measurement": "AC50", "setting": "[5]", "result": "39.8 µM (active)"},
      {"measurement": "AC50", "setting": "[17]", "result": "59.3 µM (active)"},
      {"measurement": "EC50", "setting": "[18]", "result": "3.29 µM (active)"},
      {"measurement": "AC50", "setting": "[6]", "result": "26.3 µM (active)"},
      {"measurement": "EC50", "setting": "cells [19]", "result": "146 nM (active)"},
      {"measurement": "EC50", "setting": "[20]", "result": "5.94 µM (active)"},
      {"measurement": "AC50", "setting": "Cytochrome P450 2C19", "result": "inconclusive"}
    ]},
    {"smiles": "Cn1cc(Cl)c(C(=O)NN=C(S)Nc2cccc(Cl)c2)n1", "values": [
      {"measurement": "IC50", "setting": "[21]", "result": "> 122 µM (inactive)"}
    ]},
    {"smiles": "CN(C)c1ccc(/C=N\\NC(=O)CC#N)cc1", "values": [
      {"measurement": "IC50", "setting": "[1]", "result": "> 1.11 µM (active)"}
    ]},
    {"smiles": "C[C@H](CO)N1C[C@H](C)[C@H](CN(C)C(=O)Nc2cccc3ccccc23)OCCCC[C@H](C)Oc2ccc(NC(=O)NC3CCCCC3)cc2C1=O", "values": [
      {"measurement": "AC50", "setting": "[11]", "result": "45.6 µM (active)"},
      {"measurement": "AC50", "setting": "[13]", "result": "4.13 µM (active)"}
    ]}
  ]
}
